This is an account of results in US9902733B2, “Furopyridines as inhibitors of protein kinases” (MASARYKOVA UNIVERZITA, priority 2014, dated 2018).

SMILES strings stand for the structures. Some results are limits rather than exact numbers.

In test [1] the target is T1, HIPK2(h) (Homo sapiens, UniProt Q9H2X6).
T1 construct: purchased Merck Millipore (KinaseProfiler service)
Kind of test: HIPK2 KinaseProfiler radiometric protein kinase assay. It is filed as biochemical. The note with it: 10 μM ATP, 40 minutes at room temperature. The protocol:
(§1) In vitro essays were performed by the company Merck Millipore in their KinaseProfiler radiometric protein kinase assay as paid commercial service. The compounds IC50 values for inhibition of individual protein kinases were determined. Dose-response curves were plotted from inhibition data generated, each in duplicate, from 10 point serial dilutions of inhibitory compounds. Concentration of compound was plotted against % kinase activity. To generate IC50 values, the dose-response curves were fitted to a standard sigmoidal curve and IC50 values were derived by standard nonlinear regression analysis.
(§2) All tested compounds were prepared in 100% DMSO to final assay concentrations either 0.5 mM (for the concentration row A, see below) or 0.05 mM (for the concentration row B). This working stock of the compound was added to the assay well as the first component in the reaction, followed by the remaining components as detailed below. The stock solution was added to the individual assay wells in such amounts that the concentrations of the compound were either in the row A (0.001 μM, 0.003 μM, 0.01 μM, 0.03 μM, 0.1 μM, 0.3 μM, 1.0 μM, 3.0 μM, and 10.0 μM) or in the row B (0.0001 μM, 0.0003 μM, 0.001 μM, 0.003 μM, 0.01 μM, 0.03 μM, 0.1 μM, 0.3 μM, and 1.0 μM). There was no pre-incubation step between the compound and the kinase prior to initiation of the reaction.
(§3) The positive control wells contained all components of the reaction, except the compound of interest; however, DMSO (at a final concentration of 2%) was included in these wells to control for solvent effects. The blank wells contained all components of the reaction, with staurosporine as a reference inhibitor replacing the compound of interest. This abolished kinase activity and established the base-line (0% kinase activity remaining).
HIPK2(h) was diluted in the buffer (20 mM MOPS, 1 mM EDTA, 0.01% Brij-35, 5% Glycerol, 0.1% β-mercaptoethanol, 1 mg/mL BSAs) to the concentration of 1.01 mg/mL prior to addition to the reaction mix.
The above stock solution of HIPK2(h) was added to a mixture containing 8 mM MOPS pH 7.0, 0.2 mM EDTA, and 0.33 mg/mL myelin basic protein in such amount that the resulting concentration of HIPK2(h) was 1.4 nM. This mixture was added to the stock solution of the tested compound. The reaction was initiated by the addition of the MgATP mix in such amount that the resulting concentration of Mg acetate in the reaction mixture was 10 mM and [γ-^33P-ATP] (specific activity approx. 500 cpm/pmol) was 10 μM. After incubation for 40 minutes at room temperature, the reaction was stopped by the addition of 3% phosphoric acid solution. 10 μL of the reaction was then spotted onto a P30 filtermat and washed three times for 5 minutes in 75 mM phosphoric acid and once in methanol prior to drying and scintillation counting.

Test [2] deals with T2, HIPK3(h) (Homo sapiens, UniProt Q9H422).
T2 construct: purchased Merck Millipore (KinaseProfiler service)
T2 sequence (Q9H422 whole entry): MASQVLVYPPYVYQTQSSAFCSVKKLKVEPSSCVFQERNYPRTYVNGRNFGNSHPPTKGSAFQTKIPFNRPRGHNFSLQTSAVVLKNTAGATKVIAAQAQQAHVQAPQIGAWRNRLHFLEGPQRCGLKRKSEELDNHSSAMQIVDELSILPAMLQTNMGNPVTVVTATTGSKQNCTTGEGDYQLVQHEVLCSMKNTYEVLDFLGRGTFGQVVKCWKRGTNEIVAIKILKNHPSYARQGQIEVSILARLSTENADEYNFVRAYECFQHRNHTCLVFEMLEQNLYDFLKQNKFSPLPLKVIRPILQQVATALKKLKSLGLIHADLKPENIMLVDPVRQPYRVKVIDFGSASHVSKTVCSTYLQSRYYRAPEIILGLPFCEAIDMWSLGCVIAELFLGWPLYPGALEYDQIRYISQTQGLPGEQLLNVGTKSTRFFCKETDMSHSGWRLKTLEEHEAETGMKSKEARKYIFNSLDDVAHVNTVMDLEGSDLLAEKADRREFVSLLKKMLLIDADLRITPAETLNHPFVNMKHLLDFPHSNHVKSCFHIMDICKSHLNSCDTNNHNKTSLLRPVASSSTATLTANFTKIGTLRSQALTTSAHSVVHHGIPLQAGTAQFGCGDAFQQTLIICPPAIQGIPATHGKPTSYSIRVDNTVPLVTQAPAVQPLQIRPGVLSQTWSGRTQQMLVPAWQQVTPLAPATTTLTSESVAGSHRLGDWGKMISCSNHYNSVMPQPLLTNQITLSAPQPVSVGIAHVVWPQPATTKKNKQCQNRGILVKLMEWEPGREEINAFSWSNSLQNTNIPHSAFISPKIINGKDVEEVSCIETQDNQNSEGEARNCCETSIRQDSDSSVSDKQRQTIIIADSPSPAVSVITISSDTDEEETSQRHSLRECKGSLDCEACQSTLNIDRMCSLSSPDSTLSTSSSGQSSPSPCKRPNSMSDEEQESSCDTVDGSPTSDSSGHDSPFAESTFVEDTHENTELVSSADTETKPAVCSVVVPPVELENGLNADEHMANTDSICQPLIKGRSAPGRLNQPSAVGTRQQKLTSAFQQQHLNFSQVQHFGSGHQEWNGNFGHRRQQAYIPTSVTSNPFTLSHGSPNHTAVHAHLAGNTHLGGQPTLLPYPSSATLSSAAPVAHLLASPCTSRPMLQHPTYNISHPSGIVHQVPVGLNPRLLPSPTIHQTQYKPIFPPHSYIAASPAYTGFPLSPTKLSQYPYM
Kind of test: HIPK3 KinaseProfiler radiometric protein kinase assay. The test is classed as biochemical. The note with it: 15 μM ATP, 40 minutes at room temperature. The protocol: as §1, §2, §3
HIPK3(h) was diluted in the buffer (20 mM MOPS, 1 mM EDTA, 0.01% Brij-35, 5% Glycerol, 0.1% β-mercaptoethanol, 1 mg/mL BSAs) to the concentration of 1.01 mg/mL prior to addition to the reaction mix.
The above stock solution of HIPK3(h) was added to a mixture containing 8 mM MOPS pH 7.0, 0.2 mM EDTA, and 1.0 mg/mL myelin basic protein in such amount that the resulting concentration of HIPK3(h) was 6.4 nM. This mixture was added to the stock solution of the tested compound. The reaction was initiated by the addition of the MgATP mix in such amount that the resulting concentration of Mg acetate in the reaction mixture was 10 mM and [γ-^33P-ATP] (specific activity approx. 500 cpm/pmol) was 15 μM. After incubation for 40 minutes at room temperature, the reaction was stopped by the addition of 3% phosphoric acid solution. […]

The IC50 is the point on the concentration scale where inhibition reaches its midpoint.

T1 sequence (Q9H2X6 whole entry): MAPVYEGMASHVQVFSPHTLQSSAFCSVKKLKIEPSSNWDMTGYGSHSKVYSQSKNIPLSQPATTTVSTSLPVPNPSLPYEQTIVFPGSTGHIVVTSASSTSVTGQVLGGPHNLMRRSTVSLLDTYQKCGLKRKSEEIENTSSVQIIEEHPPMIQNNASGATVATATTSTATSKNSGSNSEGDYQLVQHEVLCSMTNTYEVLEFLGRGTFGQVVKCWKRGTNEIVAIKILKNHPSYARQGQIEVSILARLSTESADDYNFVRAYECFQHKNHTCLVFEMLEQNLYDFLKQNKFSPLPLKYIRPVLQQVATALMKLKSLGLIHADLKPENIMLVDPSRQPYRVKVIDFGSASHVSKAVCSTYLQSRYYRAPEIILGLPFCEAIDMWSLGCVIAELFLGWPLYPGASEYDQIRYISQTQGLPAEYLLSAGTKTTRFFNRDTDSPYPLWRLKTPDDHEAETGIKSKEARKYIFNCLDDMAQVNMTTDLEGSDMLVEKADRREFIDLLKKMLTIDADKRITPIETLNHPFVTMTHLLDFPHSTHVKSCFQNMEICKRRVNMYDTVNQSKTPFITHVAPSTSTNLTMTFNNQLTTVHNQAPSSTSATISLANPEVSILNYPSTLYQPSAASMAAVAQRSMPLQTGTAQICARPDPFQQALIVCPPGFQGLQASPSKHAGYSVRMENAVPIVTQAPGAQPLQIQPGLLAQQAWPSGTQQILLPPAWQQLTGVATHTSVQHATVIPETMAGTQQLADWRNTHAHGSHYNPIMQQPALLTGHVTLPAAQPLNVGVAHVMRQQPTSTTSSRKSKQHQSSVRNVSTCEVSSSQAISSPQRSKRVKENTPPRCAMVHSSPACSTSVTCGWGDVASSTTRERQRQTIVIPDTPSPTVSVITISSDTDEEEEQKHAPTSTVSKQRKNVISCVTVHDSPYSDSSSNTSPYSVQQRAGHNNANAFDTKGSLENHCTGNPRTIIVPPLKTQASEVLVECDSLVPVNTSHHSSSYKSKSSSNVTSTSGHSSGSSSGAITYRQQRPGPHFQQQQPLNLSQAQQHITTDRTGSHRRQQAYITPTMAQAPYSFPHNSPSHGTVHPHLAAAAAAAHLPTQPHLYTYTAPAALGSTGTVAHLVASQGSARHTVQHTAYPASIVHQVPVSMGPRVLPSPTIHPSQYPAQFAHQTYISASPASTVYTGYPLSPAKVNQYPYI

Consider `Cn1cc(-c2ccc3occ(-c4ccccc4)c3n2)cn1` [Preparative Example 6A], for which the values for the IC50 in test [1] and in test [2] were below 1 µM and below 5 µM, respectively.

For the compound `c1ccc(-c2coc3ccc(-c4cn[nH]c4)nc23)cc1` [Preparative Example 9], the IC50 in test [1] is below 0.1 µM; in test [2] it was below 1 µM.
